Values quoted from earlier work as cited in patent US20040028754A1, “Use of phyllanthus component for the treatment or prophylaxis of infections triggered by flaviviridae” (priority 2000, published 2004).

Experiments:
Bacillus subtilis = details: 0.1 ml; extract 50 mg/ml, streptomycin 10 mg/ml
Staphylococcus aureus = details: 0.1 ml; extract 50 mg/ml, streptomycin 10 mg/ml
[1] = tested on: Ca^2+- and phospholipid-dependent protein kinase C (PKC) of the rat brain
[2] = target: T1, cAMP-dependent protein kinase of the rat liver (Rattus norvegicus, UniProt P27791)
T1 construct: the cAMP-dependent protein kinase of the rat liver; from tissue; host or cells: rat liver

[3] = tested on: Ca^2+-dependent protein kinase of the wheat embryo

Row | Molecule | inhibition zone (Bacillus subtilis) | inhibition zone (Staphylococcus aureus) | inhibition of protein kinase [1] | inhibition of protein kinase [2] | inhibition of protein kinase [3]
1 | [H]/N=C(/N)N[C@H]1[C@H](O)[C@@H](O)[C@H](O[C@@H]2O[C@@H](C)[C@](O)(C=O)[C@H]2O[C@@H]2O[C@@H](CO)[C@H](O)[C@@H](O)[C@@H]2NC)[C@@H](N/C(N)=N\[H])[C@@H]1O [streptomycin] | 35 mm | 35 mm |  |  | 
2 | O=C1OC2C3OC(=O)C4=CC(=O)C5(O)Oc6c(O)c(O)cc(c6C4C5(O)O)C(=O)OC2C(OC(=O)c2cc(O)c(O)c(O)c2)OC3COC(=O)c2cc(O)c(O)c3c2C2C1=CC(=O)C(O)(O3)C2(O)O (centres unmarked) [amariin] |  |  | most effective | most effective | most effective
3 | geraiin |  |  | most effective | most effective | most effective
